Test results reported in PMC9648375, “Identification of the first-in-class dual inhibitors of human DNA topoisomerase IIα and indoleamine-2,3-dioxygenase 1 (IDO 1) with strong anticancer properties” (Journal of Enzyme Inhibition and Medicinal Chemistry, 2022).
In brackets after ≈: the same amount, converted by molar mass.

Experiments:
Type in all cases: cell-based
[1] = test system: AGS (human gastric adenocarcinoma); assay: MTT assay; conditions: read-out: IC50, cytotoxicity
Description: (§1) Therefore, the whole set of compounds were tested by using MTT assay in order to check their overall cytotoxic effect. The growth of cells was monitored after 24 and 48 h of incubation with the increased concentrations (1–100 µg/ml) of the thiosemicarbazide derivatives. […] This confirms that the compounds tested combine different mechanisms of anticancer activity, and DNA topoisomerase II inhibition is only one of them.
(§2) Cytotoxicity of the synthesised compounds were examined against a panel of the cancer cell lines, MCF-7 (estrogen-dependent human breast cancer cells), MDA-MB-231 (oestrogen-independent human breast cancer cells), SCC- 25 (squamous cell carcinoma of the tongue), FaDu (squamous cell carcinoma of the pharynx), A- 549 (human lung carcinoma), AGS (human gastric adenocarcinoma), LS-180, HT-29 (colon cancer cell lines), T98G (glioblastoma cells), A375 (melanoma cells). Human embryonic kidney (HEK-293) cells and human normal skin fibroblasts (CRL-2072) were used as reference cell lines. The investigated cell lines were obtained from American Type Culture Collection (ATCC; Manassas, VA, USA). A375, MCF-7, MDA-MB-231, T98G cells were cultured in Dulbecco’s Modified Eagle’s Medium (DMEM) (Sigma Aldrich, St. Louis, MO, USA) supplemented with 10% heat inactivated foetal bovine serum (FBS), penicillin (100 U/mL), and streptomycin (100 μg/mL). SCC-25 cells were cultured in 1:1 mixture of Dulbecco’s modified Eagle’s medium and Ham’s F12 Medium (Sigma Aldrich, St. Louis, MO, USA) supplemented with 400 ng/ml hydrocortisone, 10% FBS, penicillin (100 U/mL), and streptomycin (100 μg/mL). A549 and AGS cells were maintained in F-12K Medium (Sigma Aldrich, St. Louis, MO, USA). LS-180 and FaDu cells were cultured in Eagle’s Minimum Essential Medium. HT-29 cells were maintained in McCoy’s 5 A Medium (Sigma Aldrich, St. Louis, MO, USA) supplemented with 10%FBS, penicillin (100 U/mL), and streptomycin (100 μg/mL). All the cells were maintained at 37 °C in a humidified atmosphere of 5% CO2.
(§3) The synthesised compounds were dissolved in DMSO in order to obtain stock solutions. At the day of the experiment, the suspension of cells (1 × 10^5 cells/mL) in the respective medium was applied to a 96-well plate at 100 μL per well. […] The control cells were cultured only with a medium containing 2% FBS. Cytotoxicity of DMSO was also checked at concentrations present in respective dilutions of stock solution. After 24 h (or 48 h) of incubation, 15 μL of MTT working solution (5 mg/mL in PBS) was added to each well. The plate was incubated for 3 h. Subsequently, 100 μL of 10% SDS solution was added to each well. Cells were incubated overnight at 37 °C to dissolve the precipitated formazan crystals. The concentration of the dissolved formazan was evaluated by measuring the absorbance at λ = 570 nm, using a microplate reader (Epoch, BioTek Instruments, Inc., Winooski, VT, USA). At least two independent experiments were performed in triplicates. The results of the MTT assay were expressed as mean ± SD. […] IC50 values of the investigated derivatives and standards were calculated using the IC50 calculator.[23]

[2] = test system: LS180 (colon cancer cell line); assay: MTT assay; conditions: Homo sapiens, read-out: IC50, cytotoxicity
Description: as §1, §2, §3

[3] = test system: T98G (glioblastoma cells); assay: BrdU assay; conditions: Homo sapiens, 24 h, read-out: IC50 ± SD, antiproliferative activity
Description: (§4) Since the inhibition of human DNA topoisomerase II should result in decreased proliferation of cancer cells, compounds 1-3 were tested using BrdU assay against a panel of cancer cell lines, including MCF-7 (estrogen-dependent human breast cancer cells), MDA-MB-231 (estrogen-independent human breast cancer cells), SCC-25 (squamous cell carcinoma of the tongue), FaDu (squamous cell carcinoma of the pharynx), A549 (human lung carcinoma), AGS (human gastric adenocarcinoma), LS-180, HT-29 (colon cancer cell lines), T98G (glioblastoma cells), and A375 (melanoma cells). Human normal skin fibroblasts (CRL-2072) were also used as a reference cell line. The BrdU assay allows quantification of cell proliferation since it measures incorporation of thymidine analogue (BrdU) during DNA replication. […] However, although the antiproliferative effect caused by 3 was mostly weaker (except for A549 and A375) than observed for 1, but the former compound was also characterised by lower toxicity against human normal cells. It results in selectivity index approaching 125 and 57, when it comes to lung cancer (A549) and melanoma cells (A375), respectively.
as §2
(§5) The BrdU assay was performed to determine the effect of synthesised compounds on the proliferation of cancer cells. BrdU assay indicates the rate of incorporation of 5′-bromo-2′-deoxy-uridine (BrdU) during DNA biosynthesis. In brief, cells were plated in 96-well plates (NUNC, Roskilde, Denmark) at the density of 3 × 10^4 cells/mL. […] Cell proliferation was examined after 24 h and 48 h of incubation according to the manufacturer’s protocol (Cell Proliferation ELISA BrdU, Roche Diagnostics GmbH, Penzberg,)Germany).

[4] = test system: AGS (human gastric adenocarcinoma); assay: BrdU assay; conditions: 24 h, read-out: IC50 ± SD, antiproliferative activity
Description: as §4, §2, §5

[5] = test system: MDA-MB-231 (estrogen-independent human breast cancer cells); assay: BrdU assay; conditions: MDA-MB-231, BrdU, 24 h, read-out: IC50 ± SD, antiproliferative activity
Description: as §4, §2, §5

[6] = test system: HT-29 (colon cancer cell line); assay: BrdU assay; conditions: Homo sapiens; HT-29, BrdU, 24 h; read-out: IC50 ± SD, antiproliferative activity
Description: as §4, §2, §5

[7] = test system: A549 (human lung carcinoma); assay: BrdU assay; conditions: for IC50: Homo sapiens, A549, BrdU, 24 h, read-out: IC50 ± SD, antiproliferative activity
Description: as §4, §2, §5

[8] = test system: Human normal skin fibroblasts (CRL-2072); assay: BrdU assay; conditions: Skin fibroblast, 24 h, read-out: IC50 ± SD, antiproliferative activity
Description: as §4, §2, §5

[9] = test system: MCF-7 (estrogen-dependent human breast cancer cells); assay: BrdU assay; conditions: MCF7, MCF-7, BrdU, 24 h, read-out: IC50 ± SD, antiproliferative activity
Description: as §4, §2, §5

[10] = test system: SCC-25 (squamous cell carcinoma of the tongue); assay: BrdU assay; conditions: Homo sapiens; SCC-25, BrdU, 24 h; read-out: IC50 ± SD, antiproliferative activity
Description: as §4, §2, §5

[11] = test system: FaDu (squamous cell carcinoma of the pharynx); assay: BrdU assay; conditions: Homo sapiens, 24 h, read-out: IC50 ± SD, antiproliferative activity
Description: as §4, §2, §5

[12] = test system: LS180 (colon cancer cell line); assay: BrdU assay; conditions: Homo sapiens, 24 h, read-out: IC50 ± SD, antiproliferative activity
Description: as §4, §2, §5

IC50 [3] [µg/mL]	IC50 [4] [µg/mL]	IC50 [5] [µg/mL]	IC50 [6] [µg/mL]	IC50 [7] [µg/mL]	IC50 [9] [µg/mL]	IC50 [10] [µg/mL]	IC50 [11] [µg/mL]	IC50 [12] [µg/mL]	SMILES	IC50 ([1]; 24h) [µg/mL]	IC50 ([1]; 48 h) [µg/mL]	IC50 ([2]; 24h) [µg/mL]	IC50 ([2]; 48 h) [µg/mL]	IC50 [8] [µg/mL]	selectivity index, A549 vs. human normal skin fibroblasts ([7]; BrdU assay, lung cancer (A549))
6.19 ± 1.83 (≈ 14.1 µM)	62.3 ± 3.04 (≈ 142 µM)	> 100	9.47 ± 0.51 (≈ 21.5 µM)	0.83 ± 0.03 (≈ 1.89 µM)	33.2 ± 1.05 (≈ 75.4 µM)	1.06 ± 0.04 (≈ 2.41 µM)	7.11 ± 0.34 (≈ 16.2 µM)	10.4 ± 0.77 (≈ 23.6 µM)	O=C(Cc1cccc2ccccc12)NNC(=S)Nc1ccc(N=Nc2ccccc2)cc1 [Compound 2, 4-(4-Phenylazophenyl)-1-[(naphth-1-yl)acetyl]thiosemicarbazide]	5.32 (≈ 12.1 µM)	2.96 (≈ 6.73 µM)	2.87 (≈ 6.53 µM)	2.24 (≈ 5.1 µM)	24.2 ± 1.4 (≈ 55 µM)	
6.28 ± 0.37 (≈ 14.9 µM)	43.9 ± 1.94 (≈ 104 µM)	> 100	13.1 ± 0.81 (≈ 31.3 µM)	0.25 ± 0.01 (≈ 0.595 µM)	32.5 ± 1.98 (≈ 77.4 µM)	4.89 ± 0.22 (≈ 11.6 µM)	9.04 ± 0.39 (≈ 21.5 µM)	10.6 ± 0.24 (≈ 25.1 µM)	O=C(NNC(=S)Nc1ccc(N=Nc2ccccc2)cc1)c1ccccc1[N+](=O)[O-] [Compound 3, 4-(4-Phenylazophenyl)-1-(2-nitrobenzoyl)thiosemicarbazide]	5.54 (≈ 13.2 µM)	4.31 (≈ 10.3 µM)	3.12 (≈ 7.42 µM)	2.7 (≈ 6.42 µM)	32.1 ± 1.75 (≈ 76.4 µM)	~125
29.5 ± 0.93 (≈ 50.1 µM)	46 ± 2.61 (≈ 78.1 µM)	> 100	19.9 ± 0.25 (≈ 33.9 µM)	2.6 ± 0.11 (≈ 4.42 µM)	54.9 ± 1.82 (≈ 93.3 µM)	21.2 ± 0.74 (≈ 36 µM)	12.8 ± 0.27 (≈ 21.8 µM)	> 100	COc1cc([C@@H]2c3cc4c(cc3[C@@H](O[C@@H]3O[C@@H]5CO[C@@H](C)O[C@H]5[C@H](O)[C@H]3O)[C@H]3COC(=O)[C@H]23)OCO4)cc(OC)c1O [Etoposide, etoposide, reference compound]	50.8 (≈ 86.3 µM)	29.8 (≈ 50.6 µM)	> 100	11.7 (≈ 19.9 µM)	55.7 ± 3.01 (≈ 94.6 µM)	
0.72 ± 0.02 (≈ 1.72 µM)	0.51 ± 0.02 (≈ 1.22 µM)	26.3 ± 0.99 (≈ 62.7 µM)	0.44 ± 0.03 (≈ 1.05 µM)	0.23 ± 0.01 (≈ 0.548 µM)	1.19 ± 0.04 (≈ 2.84 µM)	1.1 ± 0.02 (≈ 2.62 µM)	1.04 ± 0.04 (≈ 2.48 µM)	4.68 ± 0.17 (≈ 11.2 µM)	CC(C)c1cccc(C(C)C)c1NC(=S)NNC(=O)Cc1cccc2ccccc12 [Compound 1, 4-(2,6-Diisopropylphenyl)-1-[(naphth-1-yl)acetyl]thiosemicarbazide]	5.92 (≈ 14.1 µM)	2.69 (≈ 6.41 µM)	4.57 (≈ 10.9 µM)	2.54 (≈ 6.05 µM)	22.4 ± 0.94 (≈ 53.3 µM)	
